Experimental data as given in US12319655B2, “RAF kinase inhibitors and methods of use thereof” (Deciphera Pharmaceuticals, LLC, priority 2021, dated 2025).

Tests used:
Type in all cases: cell-based
H2405 cells = test: H2405 Cell Proliferation Assay (1); conditions: Homo sapiens, NCI-H2405
Outline: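 Viability was read by resazurin reduction (ex 540 nm, em 600 nm; 5-6 h with 40 μL of 440 μM stock) after 67-72 h compound exposure at 37 °C.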

WM3928 cells = test: WM3928 Cell Proliferation Assay (1)
Outline: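 IC50 was derived from resazurin fluorescence (ex 540, em 600 nm) after a 6–7 h dye incubation. Before that, cells had 67–72 h of compound exposure at 37 °C, 5% CO2.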

Miapaca-2 cells [1] = test: MiaPaca-2 Cell Proliferation Assay (1); conditions: Homo sapiens, MIA PaCa-2, single agent, read-out: MiaPaca2 (1) IC50
Outline: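 Resazurin was added after compound exposure and incubated 5-6 h, then fluorescence read at 540 nm excitation and 600 nm emission to give IC50.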

Miapaca-2 cells [2] = test: MiaPaca-2 Cell Proliferation Assay (2); conditions: Homo sapiens, MIA PaCa-2, single agent
Procedure: MiaPaca-2 Cell Proliferation Assay (2)
Miapaca-2 cells (catalog #CRL-1420) are obtained from the American Type Culture Collect (ATTC, Manassas, VA). Briefly, cells were grown in DMEM supplemented with 10% characterized fetal bovine serum (Invitrogen, Carlsbad, CA), 2.5% New Zealand sourced horse serum and 1% Penicillin/Streptomycin/L-Glutamine at 37° C., 5% CO2, and 95% humidity. Cells are expanded until reaching 70-95% confluency at which point they are sub-cultured or harvested for assay use. A serial dilution of test compound is dispensed into a 384-well black clear bottom plate in triplicate. Seven hundred fifty cells are added per well in 50 μL complete growth medium in the 384-well plate. Plates are incubated for 67-72 h at 37° C., 5% CO2, and 95% humidity. At the end of the incubation, 10 μL of a 440 μM solution of resazurin (Sigma, St. Louis, MO) in PBS is added to each well of the plate and plates are incubated for an additional 5-6 h at 37° C., 5% CO2, and 95% humidity. Plates are read on a Synergy2 or equivalent reader (Biotek, Winooski VT) using an excitation of 540 nm and an emission of 600 nm. Data is analyzed using Prism software (GraphPad, San Diego, CA) to calculate IC50 values.

Row | SMILES | IC50 (H2405 cells) [nM] | IC50 (WM3928 cells) [nM] | IC50 (Miapaca-2 cells [1]) [nM] | IC50 (Miapaca-2 cells [2]) [nM]
1 | COC(=O)Nc1cc(-c2cccc(-c3cc(NC(=O)c4ccnc(C(C)(C)F)c4)cnc3C)c2)ncn1 [Example 404] | 1000 to 10000 | 100 to 500 | – | –
2 | COC(=O)Nc1cc(-c2cncc(-c3cc(NC(=O)c4ccnc(C5(C#N)CC5)c4)ccc3C)c2)ncn1 [Example 405] | ≤ 100 | ≤ 100 | 500 to 1000 | –
3 | Cc1ncc(NC(=O)c2ccnc(C(C)(C)F)c2)cc1-c1cncc(-c2cc(NC(=O)C3CC3)ncn2)c1 [Example 406] | ≤ 100 | ≤ 100 | 500 to 1000 | –
4 | Cc1ncc(NC(=O)c2ccnc(C(C)(C)C#N)c2)cc1-c1cccc(-c2cnc3ccccn23)c1 [Example 407] | 500 to 1000 | 1000 to 10000 | – | –
5 | CNC(=O)c1cc(-c2cncc(-c3cc(NC(=O)c4ccnc(C(C)(C)F)c4)c(F)cc3C)c2)ccn1 [Example 408] | 100 to 500 | 100 to 500 | – | –
6 | COC(=O)Nc1cc(-c2cnnc(-c3cc(NC(=O)c4cn(C(C)C)nn4)ccc3C)c2)ccn1 [Example 409] | 1000 to 10000 | 1000 to 10000 | – | –
7 | Cc1ncc(NC(=O)c2ccnc(C(C)(C)C#N)c2)cc1-c1cncc(-c2cc(NC(=O)C3CC3)ncn2)c1 [Example 410] | 100 to 500 | ≤ 100 | 1000 to 10000 | –
8 | Cc1ccc(NC(=O)c2ccnc(C(C)(C)F)c2)cc1-c1cncc(-c2cc(N)ncn2)c1 [Example 411] | 100 to 500 | ≤ 100 | 1000 to 10000 | –
9 | Cc1ccc(NC(=O)c2cn(C(C)C)nn2)cc1-c1cncc(-c2cc(NC(=O)C3CC3)ncn2)c1 [Example 412] | ≤ 100 | ≤ 100 | 500 to 1000 | –
10 | CNC(=O)c1cc(-c2cncc(-c3cc(NC(=O)c4ccnc(C(C)(C)F)c4)ccc3C)c2)ccn1 [Example 413] | ≤ 100 | ≤ 100 | 1000 to 10000 | –
11 | COC(=O)Nc1cc(-c2cncc(-c3cc(NC(=O)c4ccnc(C(C)(C)C#N)c4)ccc3C)c2)ncn1 [Example 414] | ≤ 100 | ≤ 100 | 100 to 500 | –
12 | COC(=O)Nc1cc(-c2cccc(-c3cc(NC(=O)Cn4cc(C(C)C)nn4)cnc3C)c2)ccn1 [Example 415] | – | 1000 to 10000 | – | –
13 | COC(=O)Nc1cc(-c2cc(-c3cc(NC(=O)c4ccnc(C(C)(C)F)c4)ccc3C)nc(C)n2)ccn1 [Example 416] | 100 to 500 | ≤ 100 | 500 to 1000 | –
14 | Cc1ccc(NC(=O)c2ccnc(C(C)(C)F)c2)cc1-c1cncc(-c2ccnc(NC(=O)C3CC3)c2)c1 [Example 417] | ≤ 100 | ≤ 100 | 500 to 1000 | –
15 | Cc1cc(F)c(NC(=O)c2ccnc(C(C)(C)C#N)c2)cc1-c1cncc(-c2ccnc(NC(=O)C3CC3)c2)c1 [Example 418] | ≤ 100 | ≤ 100 | 100 to 500 | –
16 | Cc1ccc(NC(=O)c2ccnc(C(C)(F)F)c2)cc1-c1cncc(-c2cc(NC(=O)C3CC3)ncn2)c1 [Example 419] | ≤ 100 | ≤ 100 | 100 to 500 | –
17 | Cc1ccc(NC(=O)c2ccnc(C(C)(C)C#N)c2)cc1-c1cncc(-c2cc(NC(=O)C(C)C)ncn2)c1 [Example 420] | ≤ 100 | ≤ 100 | – | –
18 | Cc1ccc(NC(=O)c2cc(C3CC3)on2)cc1-c1cncc(-c2cc(NC(=O)C3CC3)ncn2)c1 [Example 421] | ≤ 100 | ≤ 100 | 1000 to 10000 | –
19 | Cc1ccc(NC(=O)c2ccnc(C(C)(C)C#N)c2)cc1-c1cncc(-c2cc(N)ncn2)c1 [Example 422] | 100 to 500 | 100 to 500 | – | –
20 | Cc1cc(F)c(NC(=O)c2ccnc(C(C)(C)F)c2)cc1-c1cncc(-c2cc(NC(=O)C3CC3)ncn2)c1 [Example 423] | – | ≤ 100 | – | –
21 | Cc1cc(F)c(NC(=O)c2ccnc(C(C)(C)C#N)c2)cc1-c1cncc(-c2cc(NC(=O)C3CC3)ncn2)c1 [Example 424] | – | ≤ 100 | – | –
22 | COC(=O)Nc1cc(-c2cncc(-c3cc(NC(=O)c4ccnc(C(C)(C)F)c4)ccc3C)c2)ncn1 [Example 425] | ≤ 100 | ≤ 100 | – | –
23 | CNC(=O)c1cc(-c2nccc(-c3cc(NC(=O)c4ccnc(C(C)(C)F)c4)c(F)cc3C)n2)ccn1 [Example 427] | 100 to 500 | ≤ 100 | 1000 to 10000 | –
24 | CNC(=O)c1cc(-c2cc(-c3cc(NC(=O)c4ccnc(C(C)(C)F)c4)ccc3C)nc(C)n2)ccn1 [Example 428] | 100 to 500 | 100 to 500 | – | –
25 | Cc1ccc(NC(=O)c2ccnc(C(F)F)c2)cc1-c1cncc(-c2cc(NC(=O)C3CC3)ncn2)c1 [Example 429] | ≤ 100 | ≤ 100 | – | –

Row | SMILES | IC50 (H2405 cells) [nM] | IC50 (WM3928 cells) [nM] | IC50 (Miapaca-2 cells [1]) [nM] | IC50 (Miapaca-2 cells [2]) [nM]
26 | Cc1ccc(NC(=O)c2cnn(C3CC3)c2)cc1-c1cncc(-c2cc(NC(=O)C3CC3)ncn2)c1 [Example 430] | 100 to 500 | ≤ 100 | 1000 to 10000 | –
27 | Cc1ccc(NC(=O)c2cc(C(C)(C)C)on2)cc1-c1cncc(-c2cc(NC(=O)C3CC3)ncn2)c1 [Example 431] | ≤ 100 | ≤ 100 | 1000 to 10000 | –
28 | Cc1ccc(NC(=O)c2ccnc(C(C)(C)F)c2)cc1-c1cncc(-c2ccnc3c2CC(=O)N3)c1 [Example 432] | – | 100 to 500 | – | –
29 | Cc1ncc(NC(=O)c2ccnc(C(C)(C)F)c2)cc1-c1cncc(-c2ccnc(NC(=O)C3CC3)c2)c1 [Example 433] | – | ≤ 100 | 500 to 1000 | –
30 | Cc1ccc(NC(=O)c2ccnc(C(C)C)c2)cc1-c1cncc(-c2cc(NC(=O)C3CC3)ncn2)c1 [Example 434] | – | ≤ 100 | 100 to 500 | –
31 | COC(=O)Nc1cc(-c2cncc(-c3cc(NC(=O)c4ccnc(C(C)(C)F)c4)ccc3C)c2)ccn1 [Example 435] | ≤ 100 | ≤ 100 | 500 to 1000 | –
32 | Cc1ccc(NC(=O)c2cc(C3CC3)n(C)n2)cc1-c1nccc(-c2ccnc(NC(=O)C3CC3)c2)n1 [Example 436] | ≤ 100 | ≤ 100 | 1000 to 10000 | –
33 | CNC(=O)c1cc(-c2cc(-c3cc(NC(=O)c4ccnc(C(C)(C)C#N)c4)ccc3OC)ccn2)ccn1 [Example 437] | 100 to 500 | 500 to 1000 | 1000 to 10000 | –
34 | COc1ccc(NC(=O)c2ccnc(C(C)(C)C#N)c2)cc1-c1cccc(-c2cc(NC(=O)C3CC3)ncn2)c1 [Example 438] | 100 to 500 | ≤ 100 | 1000 to 10000 | –
35 | CNC(=O)c1cc(-c2cncc(-c3cc(NC(=O)c4ccnc(C(C)(F)F)c4)ccc3C)c2)ncn1 [Example 439] | – | – | – | 1000 to 10000
36 | CNC(=O)c1cc(-c2cncc(-c3cc(NC(=O)c4ccnc(C(C)(F)F)c4)ccc3C)c2)ccn1 [Example 440] | – | – | – | 1000 to 10000
37 | CNC(=O)c1cc(-c2cc(-c3cc(NC(=O)c4ccnc(C(C)(F)F)c4)ccc3C)ccn2)ccn1 [Example 441] | – | – | – | 1000 to 10000
38 | CNC(=O)c1cc(-c2cncc(-c3cc(NC(=O)c4ccnc(C(C)(C)C#N)c4)ccc3C)c2)ccn1 [Example 442] | – | – | – | 500 to 1000
39 | CNC(=O)c1cc(-c2cc(-c3cc(NC(=O)c4ccnc(C(C)C)c4)ccc3C)ccn2)ccn1 [Example 443] | – | – | – | 500 to 1000
40 | CNC(=O)c1cc(-c2cncc(-c3cc(NC(=O)c4ccnc(C(C)C)c4)ccc3C)c2)ccn1 [Example 445] | – | – | – | 1000 to 10000
41 | CNC(=O)c1cc(-c2cncc(-c3cc(NC(=O)c4ccnc(C(C)C)c4)ccc3C)c2)ncn1 [Example 446] | – | – | – | 1000 to 10000
42 | Cc1ccc(NC(=O)c2ccnc(C(C)C)c2)cc1-c1ccnc(-c2ccnc(NC(=O)C3CC3)c2)c1 [Example 467] | – | – | – | 500 to 1000
43 | Cc1ncc(NC(=O)c2ccnc(C(C)C)c2)cc1-c1ccnc(-c2ccnc(NC(=O)C3CC3)c2)c1 [Example 468] | – | – | – | 500 to 1000
44 | CNC(=O)c1cc(-c2cc(-c3cc(NC(=O)c4ccnc(C(C)(C)F)c4)ccc3C)c(F)cn2)ccn1 [Example 469] | – | – | – | 1000 to 10000
45 | CNC(=O)c1cc(-c2cc(-c3cc(NC(=O)c4ccnc(C(C)(C)F)c4)ccc3C)cc(C)n2)ccn1 [Example 470] | – | – | – | 1000 to 10000
46 | Cc1ccc(NC(=O)c2ccnc(C(C)(C)F)c2)cc1-c1ccnc(-c2ccnc(C(N)=O)c2)c1 [Example 476] | – | – | – | 1000 to 10000
47 | CNC(=O)c1cc(-c2cc(-c3cc(NC(=O)c4ccnc(C(C)(C)F)c4)ccc3F)ccn2)ccn1 [Example 479] | – | – | – | 1000 to 10000
48 | CNC(=O)c1cc(-c2cc(-c3cc(NC(=O)c4ccnc(C(C)(C)F)c4)cc(F)c3C)ccn2)ccn1 [Example 480] | – | – | – | 1000 to 10000
49 | CNC(=O)c1cc(-c2cc(-c3cc(NC(=O)c4ccnc(C(C)(C)F)c4)c(F)cc3F)ccn2)ccn1 [Example 482] | – | – | – | 1000 to 10000
50 | Cc1cc(-c2cc(NC(=O)c3ccnc(C(C)(C)F)c3)ccc2C)cc(-c2ccnc(C(N)=O)c2)n1 [Example 484] | – | – | – | 1000 to 10000
